Results taken from publication PMC10583863 (European journal of medicinal chemistry, 2022).
In brackets after ≈: the same amount, converted by molar mass. Where two headings read alike, the source gives them in different places.

Assays:
[1] = system: M. tuberculosis H37Rv; assay: microbe, parasite or virus in culture; assay type: cell-based, Mycobacterium tuberculosis; details: for MIC90: Mycobacterium tuberculosis, H37RV, read-out: MIC90 MtbH37Rv
[2] = system: M. marinum infected zebrafish larvae; assay: Zebrafish larvae model of M. marinum infection; assay type: in vivo; details: caudal vein microinjection, ca. 6–8 ng, by tendency
[3] = in words; cited from earlier work
[4] = introduction, earlier work; cited from earlier work
[5] = system: M. tuberculosis H37Rv; details: activity already reported, cited from earlier work
[6] = system: M. abscessus Bamboo; assay: MIC by broth microdilution, NTM; details: especially against M. abscessus Bamboo; weak
[7] = Metabolic stability in human liver microsomes; assay type: in vitro ADME; details: 60 min incubation
[8] = system: H37Rv; assay: MIC by micro-broth dilution method, Mtb panel; assay type: cell-based, Mycobacterium tuberculosis; details: strain H37Rv
[9] = system: Ty1 (Rv3405c, c190t); assay: MIC by micro-broth dilution method, Mtb panel; assay type: cell-based; details: Mycobacterium tuberculosis
[10] = system: 81.10 (ethA, Δ1109–37); assay type: cell-based; details: strain 81.10 (ethA, Δ1109–37)

SMILES	MIC90 [1]	other results
Cc1ccc(Nc2nc(-c3cc(C(=O)Nc4ccccc4)no3)cs2)cc1 [Compound 3]	2.7 µM	granuloma formation [2]: granuloma formation was slightly less pronounced than in the untreated control group; reactivity to glutathione [3]: ruling out the possibility of indiscriminate reactivity toward biological nucleophiles
Cc1ccc(Nc2nc(-c3cc(C(=O)Nc4ccccn4)no3)cs2)cc1 [Compound 4]	1.3 µM	half-life in human liver microsomes (HLM) [4]: 35 ± 0.8 min; reactivity to glutathione [3]: ruling out the possibility of indiscriminate reactivity toward biological nucleophiles
Cc1ccc(Nc2nc(-c3cc(C(=O)Nc4ccc(F)cc4)no3)cs2)cc1 [Compound 9a]	2.5 µM	–
Cc1ccc(Nc2nc(-c3cc(C(=O)Nc4cccc(F)c4)no3)cs2)cc1 [Compound 10a]	6.3 µM	–
Cc1ccc(Nc2nc(-c3cc(C(=O)Nc4ccccc4F)no3)cs2)cc1 [Compound 11a]	2.5 µM	–
Cc1ccc(NC(=O)c2cc(-c3csc(Nc4ccc(C)cc4)n3)on2)cc1 [Compound 14a]	2.6 µM	–
Cc1ccc(Nc2nc(-c3cc(C(=O)Nc4cccc(C)c4)no3)cs2)cc1 [Compound 15a]	1.3 µM	–
Cc1ccc(Nc2nc(-c3cc(C(=O)Nc4ccccc4C)no3)cs2)cc1 [Compound 16a]	2.5 µM	–
Cc1ccc(Nc2nc(-c3cc(C(=O)Nc4ccc(O)cc4)no3)cs2)cc1 [Compound 20a]	1.3 µM	–
Cc1ccc(Nc2nc(-c3cc(C(=O)Nc4ccc(O)cc4)no3)cs2)cc1O [Compound 20e]	12.2 µM	–
Cc1ccc(Nc2nc(-c3cc(C(=O)Nc4cccc(O)c4)no3)cs2)cc1 [Compound 21a]	1.3 µM	–
Cc1ccc(Nc2nc(-c3cc(C(=O)Nc4ccccc4O)no3)cs2)cc1 [Compound 22a]	1.3 µM	–
Cc1ccc(Nc2nc(-c3cc(C(=O)Nc4ccncc4)no3)cs2)cc1 [Compound 23a]	2.6 µM	–
Cc1ccc(Nc2nc(-c3cc(C(=O)Nc4cccnc4)no3)cs2)cc1 [Compound 24a]	26 µM	–
Cc1ccc(Nc2nc(-c3cc(C(=O)Nc4cc(C)ccn4)no3)cs2)cc1 [Compound 27a]	2.6 µM	–
Cc1ccc(Nc2nc(-c3cc(C(=O)Nc4ccsc4)no3)cs2)cc1 [Compound 32a]	2.6 µM	–
O=C(Nc1ccccc1)c1cc(-c2csc(Nc3cc(Cl)cc(Cl)c3)n2)on1 [Compound 35b]	–	MIC90 MtbH37Rv [5]: >20 µg/mL
Cc1cc(C)cc(Nc2nc(-c3cc(C(=O)Nc4ccccc4)no3)cs2)c1 [Compound 35d]	2.5 µM	–
O=C(Nc1ccccn1)c1cc(-c2csc(Nc3cc(Cl)cc(Cl)c3)n2)on1 [Compound 36b]	–	MIC90 MtbH37Rv [5]: >20 µg/mL
Cc1ccc(Nc2nc(-c3cc(C(=O)Nc4ccccc4)no3)cs2)cc1O [Compound 42e]	6.3 µM	antitubercular whole cell activity in words [1]: retained a certain activity
O=C(Nc1ccccc1)c1cc(-c2csc(Nc3ccccc3)n2)on1 [Compound 42g]	3.4 µM	inhibitory activity in words [6]: concentration-dependent inhibitory activity
Nc1nc(-c2cc(C(=O)Nc3ccccc3)no2)cs1 [Compound 42i]	–	metabolic stability in HLM in words [7]: did not show any significant biotransformation
O=C(Nc1ccccc1)c1cc(-c2csc(Nc3cc(Cl)c(Cl)c(Cl)c3)n2)on1 [Compound 42j]	–	metabolic stability in HLM in words [7]: did not show any significant biotransformation

SMILES	MIC90 [1]	other results
O=C(Nc1ccccc1)c1cc(-c2csc(Nc3ccc(Cl)cc3)n2)on1 [Compound 42l]	3.2 µM	–
O=C(Nc1ccccc1)c1cc(-c2csc(Nc3cccc(O)c3)n2)on1 [Compound 42m]	13.2 µM	–
O=C(Nc1ccccc1)c1cc(-c2csc(Nc3ccc(CO)cc3)n2)on1 [Compound 42n, 5-(2-((4-(hydroxymethyl)phenyl)amino)thiazol-4-yl)-N-phenylisoxazole-3-carboxamide]	–	antitubercular whole cell activity in words [1]: no whole cell activity
Cc1ccc(Nc2nc(-c3cc(C(=O)Nc4ccccn4)no3)cs2)cc1O [Compound 43e]	12.6 µM	antitubercular whole cell activity in words [1]: retained a certain activity
O=C(Nc1ccccn1)c1cc(-c2csc(Nc3ccccc3)n2)on1 [Compound 43g]	–	inhibitory activity in words [6]: concentration-dependent inhibitory activity
Nc1nc(-c2cc(C(=O)Nc3ccccn3)no2)cs1 [Compound 43i]	–	metabolic stability in HLM in words [7]: did not show any significant biotransformation
O=C(Nc1ccccn1)c1cc(-c2csc(Nc3cc(Cl)c(Cl)c(Cl)c3)n2)on1 [Compound 43j]	–	metabolic stability in HLM in words [7]: did not show any significant biotransformation
O=C(Nc1ccccn1)c1cc(-c2csc(Nc3ccc(CO)cc3)n2)on1 [Compound 43n, 5-(2-((4-(hydroxymethyl)phenyl)amino)thiazol-4-yl)-N-(pyridin-2-yl)isoxazole-3-carboxamide]	–	antitubercular whole cell activity in words [1]: no whole cell activity
Cc1ccc(Nc2nc(-c3cc(C(=O)Nc4ccccc4)no3)co2)cc1 [Compound 47]	2.8 µM	–
Cc1ccc(Nc2nc(-c3cc(C(=O)Nc4ccccn4)no3)co2)cc1 [Compound 48]	–	MIC90 MtbH37Rv ([5]; value in brackets): 6.9 µM
CCOC(=O)c1cc(-c2cccc(Nc3ccc(C)cc3)n2)on1 [Compound 53, Ethyl 5-(6-(p-tolylamino)pyridin-2-yl)isoxazole-3-carboxylate]	3.8 µM	–
O=C(Nc1ccccc1)c1cc(C(=O)Nc2nc3ccccc3s2)on1 [Compound 58a]	> 40 µg/mL	–
Cc1ccc2nc(NC(=O)c3cc(C(=O)Nc4ccccn4)no3)sc2c1 [Compound 58b]	> 40 µg/mL	–
O=C(Nc1ccccn1)c1cc(C(=O)Nc2nc3ccccc3s2)on1 [Compound 59a]	> 40 µg/mL	–
Cc1ccc2nc(NC(=O)c3cc(C(=O)Nc4ccccc4)no3)sc2c1 [Compound 59b]	> 40 µg/mL	–
Cc1cccc(NC(=O)c2cc(C(=O)Nc3nc4ccccc4s3)on2)c1 [Compound 60a]	> 40 µg/mL	–
Cc1cccc(NC(=O)c2cc(C(=O)Nc3nc4ccc(C)cc4s3)on2)c1 [Compound 60b]	> 40 µg/mL	–
COc1ccc2sc(NC(=O)c3cc(C(=O)Nc4cccc(C)c4)no3)nc2c1 [Compound 60c]	> 40 µg/mL	–
O=C(Nc1ccc(O)cc1)c1cc(C(=O)Nc2nc3ccccc3s2)on1 [Compound 61a]	> 40 µg/mL	–
Cc1ccc2nc(NC(=O)c3cc(C(=O)Nc4ccc(O)cc4)no3)sc2c1 [Compound 61b]	> 40 µg/mL	–
O=C(Nc1cccc(F)c1)c1cc(C(=O)Nc2nc3ccccc3s2)on1 [Compound 62a]	> 40 µg/mL	–
O=C(Nc1cccc(O)c1)c1cc(C(=O)Nc2nc3ccccc3s2)on1 [Compound 63a]	> 40 µg/mL	–
NNC(=O)c1ccncc1 [INH, Isoniazide]	–	MIC90 MtbH37Rv ([1]; REMA method, M. tuberculosis H37Rv): 0.025 µg/mL (≈ 0.182 µM); MIC90 [8]: 0.025 µg/mL (≈ 0.182 µM); MIC90 [9]: 0.025 µg/mL (≈ 0.182 µM); MIC90 [10]: 0.025 µg/mL (≈ 0.182 µM)
